Experiments:
ULK2 = target: T1, ULK2 (Homo sapiens, UniProt Q8IYT8); assay: Kinase profiling assay (Reaction Biology), 10-dose IC50, 10 μM ATP; format: biochemical; conditions: NA = no activity
T1 construct: purchased Reaction Biology Corporation
T1 sequence (Q8IYT8 1-1036): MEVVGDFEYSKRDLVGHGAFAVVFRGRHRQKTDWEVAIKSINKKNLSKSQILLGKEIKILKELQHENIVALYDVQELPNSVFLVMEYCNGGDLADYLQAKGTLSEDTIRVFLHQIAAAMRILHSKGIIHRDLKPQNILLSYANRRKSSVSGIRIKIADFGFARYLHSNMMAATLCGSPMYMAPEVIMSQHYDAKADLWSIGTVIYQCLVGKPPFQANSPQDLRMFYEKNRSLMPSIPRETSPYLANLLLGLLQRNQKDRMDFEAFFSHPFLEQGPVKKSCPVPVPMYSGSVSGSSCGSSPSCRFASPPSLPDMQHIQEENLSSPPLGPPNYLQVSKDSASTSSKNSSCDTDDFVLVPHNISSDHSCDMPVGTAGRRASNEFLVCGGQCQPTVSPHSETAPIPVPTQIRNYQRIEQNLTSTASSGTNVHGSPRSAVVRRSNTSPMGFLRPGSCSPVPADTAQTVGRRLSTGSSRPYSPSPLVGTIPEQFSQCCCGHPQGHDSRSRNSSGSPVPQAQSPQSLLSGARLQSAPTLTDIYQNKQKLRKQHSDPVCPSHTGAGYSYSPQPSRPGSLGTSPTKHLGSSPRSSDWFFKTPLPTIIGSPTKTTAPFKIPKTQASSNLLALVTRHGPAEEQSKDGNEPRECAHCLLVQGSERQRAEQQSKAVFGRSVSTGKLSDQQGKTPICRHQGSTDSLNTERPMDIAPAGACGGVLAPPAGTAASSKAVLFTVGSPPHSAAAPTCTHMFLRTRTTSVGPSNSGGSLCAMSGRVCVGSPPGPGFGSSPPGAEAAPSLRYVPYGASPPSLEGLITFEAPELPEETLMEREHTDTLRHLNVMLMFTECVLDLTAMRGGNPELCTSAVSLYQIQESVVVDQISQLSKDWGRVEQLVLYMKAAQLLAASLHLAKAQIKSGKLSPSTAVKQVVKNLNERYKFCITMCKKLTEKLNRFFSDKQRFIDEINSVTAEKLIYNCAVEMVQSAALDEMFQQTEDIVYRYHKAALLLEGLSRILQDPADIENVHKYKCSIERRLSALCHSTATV
Description: (§1) 310 and refinement were performed with COOT [14] and Phenix.Refine to obtain a clear electron
(§2) 311 density map (1Fo-Fc) for compound MA9-060, which was built into the structure near the end of
(§3) 312 iterative cycles of model building and refinement. Crystal parameters, data collection statistics and
(§4) 313 refinement statistics are summarized in Supplementary Fig. 4D and deposited in the protein
(§5) 314 databank with PDB code 8V1M.
(§6) 317 The compounds under investigation were tested by Reaction Biology Corporation against four
(§7) 318 specific kinases in this study (JAK2, ULK1, ULK2, ULK3). Each compound was provided as a
(§8) 319 10 mM stock solution. To facilitate dissolution, the compounds were subjected to gentle heating.
(§9) 320 Subsequent testing involved the evaluation of the compounds using a 10-dose IC50 mode,
(§10) Additionally, the control compound,
(§11) Throughout these experiments, reactions were conducted using a standardized concentration
(§12) 325 The data collected during these assays encompass raw data, % enzyme activity (relative to DMSO
(§13) 327 activities at the highest concentration of compounds were less than 65%. The IC50 summary,
(§14) 328 detailing the inhibitory concentrations of the compounds against the respective kinases, is
(§15) 331 Bromodomain profiling assay
(§16) 333 evaluated against Bromodomain 1 by Reaction Biology Corporation.
(§17) 334 The compounds were subjected to testing using a 10-dose IC50 singlet approach, involving a 3-
(§18) 335 fold serial dilution starting at 10 μM, specifically against BRD4-1. Additionally, as a benchmark,
(§19) 337 dilution starting at 10 μM.
(§20) 338 For ligand and detection purposes, the H4/4Ac ligand, representing the Histone H4 peptide (1-21)
(§21) 339 with acetylation at lysine residues K5, K8, K12, and K16, and tagged with Biotin, was utilized.

JAK2 = target: T2, JAK2 (Homo sapiens, UniProt O60674); assay: as above; format: biochemical; conditions: NA = no activity
T2 construct: purchased Reaction Biology Corporation
Description: as §1, §2, §3, §4, §5, §6, §7, §8, §9, §10, §11, §12, §13, §14, §15, §16, §17, §18, §19, §20, §21

[1] = test system: autophagy proteins in U266 MM cells; assay: Immunoblot densitometry of autophagy proteins; format: cell-based, Human; conditions: U266, 6h, MA9-060 1μM, JQ1 10μM, CQ 1μM
Description: Figure 3. Anti-myeloma activity of the MA9–060 autophagy inhibitor. A. Chemical structure of the autophagy inhibitor MA9–060. […] Chloroquine (CQ) (1μM) served as a positive control for autophagy inhibition. C. […] Hoechst 33342 dye appears here as the nuclear blue staining (Multiple comparisons ANOVA, p <0.0001).
(§22) 157 5872S). Protein concentration was quantified by Thermo Scientific™ Pierce™ BCA™ Protein
(§23) 30 μg protein was loaded to 10%-15% gel and ran at
(§24) 159 100V for 2 hours. Later protein was transferred to PVDF membrane and blocked with 5% skimmed
(§25) 160 milk in TBST (10 mM Tris/HCl pH8.0, 0.12M NaCl, 0.1% Tween 20) containing 5% BSA [8] for
(§26) 163 at 4°C overnight. Membranes were washed 3 times,10 minutes with TBS. Then incubated with
(§27) 164 appropriate secondary antibodies at 1:1000 ratio in skimmed milk or 2% BSA. The membranes
(§28) 165 were washed again 3 times for 10 minutes with TBST. ECL reagents were added to the membrane
(§29) 166 and blot was developed by LICOR Imaging Studio.
(§30) 167 All immunoblotting assays were performed at least in three replicates and representative
(§31) 168 images are shown. Commercially available antibodies and their dilutions are listed in
(§32) 169 Supplementary Table 5. Immunoblotting images were acquired and quantified using LICOR
(§33) 170 Image Studio Quant software. […]

[2] = test system: CD138+ cells isolated from RRMM patient Pt1050; assay: Immunoblot densitometry, patient cells; format: cell-based, human; conditions: Pt1050, 1μM; for ULK3 densitometry: CTRL 0.03; for ULK1 densitometry: CTRL 0.28
Description: Figure 7. MA9–060 treatment compromises the survival of patient NDMM and RRMM cells ex vivo. A. Representative viability (live cell imaging) response of CD138^+ cells from NDMM patient (Pt620) cultured and tested in autologous stromal microenvironment in EMMA’s ex vivo platform, exposed to three different concentrations of MA9–060 (0.7, 2.2, 6.7 μM). […] (not shown here – 20 μM). B. Ex vivo EMMA platform assay to quantify the chemosensitivity of primary CD138^+ MM cells plated in a collagen matrix with bone marrow stroma and patient plasma. […] C. […] H. Immunoblot showing levels of indicated proteins in CD138^+ cells isolated from RRMM patients (Pt971, Pt1050). Pt1050 CD138^+ cells were assessed for ULK3-mediated autophagy related proteins (ATGs), following treatment with MA9–060 (1μM at 2 and 6 hours).
as §22, §23, §24, §25, §26, §27, §28, §29, §30, §31, §32, §33

T2 sequence (O60674 whole entry): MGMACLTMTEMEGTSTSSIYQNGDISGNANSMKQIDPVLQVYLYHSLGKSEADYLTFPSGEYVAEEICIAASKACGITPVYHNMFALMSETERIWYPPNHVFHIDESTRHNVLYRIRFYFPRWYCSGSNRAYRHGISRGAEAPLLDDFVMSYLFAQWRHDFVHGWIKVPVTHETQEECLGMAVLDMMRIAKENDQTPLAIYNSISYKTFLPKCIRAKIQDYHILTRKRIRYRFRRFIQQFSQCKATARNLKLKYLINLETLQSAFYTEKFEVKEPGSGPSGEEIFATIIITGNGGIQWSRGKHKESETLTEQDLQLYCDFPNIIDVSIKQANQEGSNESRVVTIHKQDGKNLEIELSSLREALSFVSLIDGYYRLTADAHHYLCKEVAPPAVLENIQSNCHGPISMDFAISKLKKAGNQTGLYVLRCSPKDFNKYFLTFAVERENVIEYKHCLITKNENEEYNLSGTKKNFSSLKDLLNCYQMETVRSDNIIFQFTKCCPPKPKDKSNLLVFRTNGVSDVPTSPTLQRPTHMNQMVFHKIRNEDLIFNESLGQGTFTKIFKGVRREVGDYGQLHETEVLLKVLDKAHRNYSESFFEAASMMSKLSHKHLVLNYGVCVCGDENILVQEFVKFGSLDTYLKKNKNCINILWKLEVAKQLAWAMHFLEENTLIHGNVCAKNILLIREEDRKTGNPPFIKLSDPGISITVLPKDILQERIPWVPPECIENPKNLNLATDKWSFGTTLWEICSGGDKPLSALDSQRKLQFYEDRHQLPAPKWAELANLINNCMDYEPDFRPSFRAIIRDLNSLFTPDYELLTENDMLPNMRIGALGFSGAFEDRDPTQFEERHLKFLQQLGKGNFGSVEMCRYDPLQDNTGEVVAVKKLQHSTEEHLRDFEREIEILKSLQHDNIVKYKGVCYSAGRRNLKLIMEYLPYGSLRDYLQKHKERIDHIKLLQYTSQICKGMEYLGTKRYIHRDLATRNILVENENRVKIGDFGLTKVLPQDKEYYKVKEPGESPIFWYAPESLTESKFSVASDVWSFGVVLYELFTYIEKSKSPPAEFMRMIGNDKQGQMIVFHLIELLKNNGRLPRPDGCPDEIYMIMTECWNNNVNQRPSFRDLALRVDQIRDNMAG

`Cc1cnc(Nc2ccc(C3CCN(C)CC3)c(F)c2)nc1Nc1ccc(Cl)c(NS(=O)(=O)C(C)(C)C)c1` [MA9060] showed an IC50 (ULK2) of 4300 nM, an IC50 (JAK2) of 6.7 nM and an LC3II densitometry ([1]; CTRL 0.34) of 0.10. The LC3I densitometry ([1]; CTRL 3.01) was 1.78, the ULK1 densitometry ([1]; CTRL 7.21) was 2.44 and the ULK3 densitometry ([1]; CTRL 15.17) was 3.33. The ULK3 densitometry ([2]; 2h) was 0.03, the ULK1 densitometry ([2]; 2h) was 0.67 and the ULK3 densitometry ([2]; 6h) was 0.03. It also gave a ULK1 densitometry ([2]; 6h) of 0.35.
